Measurements from patent US8765773B2, “Substituted hydroxamic acids and uses thereof” (Millennium Pharmaceuticals, Inc., priority 2010, dated 2014).

biological target: T1, purified human HDAC6 (Homo sapiens, UniProt Q9UBN7); experiment: HDAC6 Enzyme Assay; type: biochemical; settings: compound concentration 0.37 μM, read-out: Percent Inhibition
T1 construct: purchased BPS Bioscience 5006
T1 sequence (Q9UBN7 1-1215): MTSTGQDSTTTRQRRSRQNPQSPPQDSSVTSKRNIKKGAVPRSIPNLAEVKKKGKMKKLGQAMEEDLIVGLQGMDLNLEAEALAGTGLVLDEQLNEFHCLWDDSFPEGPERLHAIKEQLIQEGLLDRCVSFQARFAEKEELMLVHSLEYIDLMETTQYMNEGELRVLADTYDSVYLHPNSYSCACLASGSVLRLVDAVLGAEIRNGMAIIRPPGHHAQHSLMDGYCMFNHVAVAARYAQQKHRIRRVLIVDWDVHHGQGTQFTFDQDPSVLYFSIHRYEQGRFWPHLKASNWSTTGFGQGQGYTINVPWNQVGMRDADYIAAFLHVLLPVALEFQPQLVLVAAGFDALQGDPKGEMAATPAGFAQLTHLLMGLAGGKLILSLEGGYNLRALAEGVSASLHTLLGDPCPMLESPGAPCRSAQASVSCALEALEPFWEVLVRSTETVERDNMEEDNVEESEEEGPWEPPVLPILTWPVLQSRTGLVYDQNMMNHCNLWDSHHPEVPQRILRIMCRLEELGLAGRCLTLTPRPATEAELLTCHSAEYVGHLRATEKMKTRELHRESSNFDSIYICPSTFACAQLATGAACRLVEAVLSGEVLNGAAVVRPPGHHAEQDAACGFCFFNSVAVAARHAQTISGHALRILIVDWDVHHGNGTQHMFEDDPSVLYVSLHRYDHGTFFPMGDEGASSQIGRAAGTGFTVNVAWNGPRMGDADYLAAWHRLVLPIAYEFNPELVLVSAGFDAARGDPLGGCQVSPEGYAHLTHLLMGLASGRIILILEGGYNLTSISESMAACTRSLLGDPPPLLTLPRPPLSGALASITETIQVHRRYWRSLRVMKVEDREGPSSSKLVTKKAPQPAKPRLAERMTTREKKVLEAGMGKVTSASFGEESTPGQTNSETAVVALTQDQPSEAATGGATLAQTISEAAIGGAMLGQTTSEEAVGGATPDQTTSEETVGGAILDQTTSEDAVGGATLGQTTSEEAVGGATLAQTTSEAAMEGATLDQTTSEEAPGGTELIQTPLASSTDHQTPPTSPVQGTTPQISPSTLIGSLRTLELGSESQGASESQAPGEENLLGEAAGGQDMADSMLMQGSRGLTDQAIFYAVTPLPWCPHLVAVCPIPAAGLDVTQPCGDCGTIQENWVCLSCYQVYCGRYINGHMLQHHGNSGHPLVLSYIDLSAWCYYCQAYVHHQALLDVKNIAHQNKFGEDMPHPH
How it was run: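 Purified human HDAC6 incubated 1 h at 30° C with Ac-Arg-Gly-Lys(Ac)-AMC peptide plus compound or DMSO; stopped with trichostatin A. Deacetylated product trypsin-digested, released AMC read by fluorescence (Ex 340/Em 460 nm). Percent inhibition at one concentration or IC50 from curves relative to DMSO controls.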

SMILES | inhibition at 0.37 µM [%]
Cc1ncc(-c2nc3cc(C(=O)NO)ccc3c(=O)[nH]2)n1C [Compound I-403, 2-(1,2-dimethyl-1H-imidazol-5-yl)-N-hydroxy-4-oxo-3,4-dihydroquinazoline-7-carboxamide] | -4.61
O=C(O)c1ccc(-c2cccc(CCn3cnc4ccc(C(=O)NO)cc4c3=O)c2)cc1 [Compound I-321, 3′-{2-[6-[(hydroxyamino)carbonyl]-4-oxoquinazolin-3(4H)-yl]ethyl}biphenyl-4-carboxylic acid] | 87.3
O=C(NO)c1ccc2ncn(CCc3cccc(N4CCOCC4)c3)c(=O)c2c1 [Compound I-125, N-hydroxy-3-[2-(3-morpholin-4-ylphenyl)ethyl]-4-oxo-3,4-dihydroquinazoline-6-carboxamide] | 88.2
O=C(NO)c1ccc2ccn(Cc3cccc(-n4cc5ccccc5n4)c3)c(=O)c2c1 [Compound I-308, N-hydroxy-2-[3-(2H-indazol-2-yl)benzyl]-1-oxo-1,2-dihydroisoquinoline-7-carboxamide] | 97.9
CNCc1cn(Cc2ccccc2)c(=O)c2cc(C(=O)NO)ccc12 [Compound I-418, 2-benzyl-N-hydroxy-4-[(methylamino)methyl]-1-oxo-1,2-dihydroisoquinoline-7-carboxamide] | 29.5
O=C(NO)c1ccc2ncn(CCN3CCCCC3)c(=O)c2c1 [Compound I-41, N-hydroxy-4-oxo-3-(2-piperidin-1-ylethyl)-3,4-dihydroquinazoline-6-carboxamide] | 73.2
CCn1nccc1-c1nc2cc(C(=O)NO)ccc2c(=O)[nH]1 [Compound I-399, 2-(1-ethyl-1H-pyrazol-5-yl)-N-hydroxy-4-oxo-3,4-dihydroquinazoline-7-carboxamide] | 61.8
COc1ccc(-c2nc3cc(C(=O)NO)ccc3c(=O)[nH]2)cc1 [Compound I-395, N-hydroxy-2-(4-methoxyphenyl)-4-oxo-3,4-dihydroquinazoline-7-carboxamide] | 80.8
CCn1nccc1-c1nc2cc(C(=O)NO)ccc2c(=O)n1Cc1ccc(C(F)(F)F)cc1 [Compound I-13, 2-(1-ethyl-1H-pyrazol-5-yl)-N-hydroxy-4-oxo-3-[4-(trifluoromethyl)benzyl]-3,4-dihydroquinazoline-7-carboxamide] | 82.1
Cc1ccccc1Cc1nc2cc(C(=O)NO)ccc2c(=O)[nH]1 [Compound I-406, N-hydroxy-2-(2-methylbenzyl)-4-oxo-3,4-dihydroquinazoline-7-carboxamide] | 86.6
O=C(NO)c1ccc2c(=O)n(Cc3ccc(C(F)(F)F)cc3)c(CCc3ccccc3)nc2c1 [Compound I-39, N-hydroxy-4-oxo-2-(2-phenylethyl)-3-[4-(trifluoromethyl)benzyl]-3,4-dihydroquinazoline-7-carboxamide] | 84.5

same assay, conditions: compound concentration 0.412 μM, read-out: Percent Inhibition

SMILES | inhibition at 0.412 µM [%]
O=C(NO)c1ccc2c(=O)n(-c3ccccc3)c(=O)[nH]c2c1 [Compound I-195, N-hydroxy-2,4-dioxo-3-phenyl-1,2,3,4-tetrahydroquinazoline-7-carboxamide] | 16.1
O=C(NO)c1ccc2ccn(CCOc3ccc(Cl)cc3)c(=O)c2c1 [Compound I-246, 2-[2-(4-chlorophenoxy)ethyl]-N-hydroxy-1-oxo-1,2-dihydroisoquinoline-7-carboxamide] | 97.7
O=C(NO)c1ccc2ccn(Cc3ccc(-n4cccn4)cc3)c(=O)c2c1 [Compound I-289, N-hydroxy-1-oxo-2-[4-(1H-pyrazol-1-yl)benzyl]-1,2-dihydroisoquinoline-7-carboxamide] | 96.7
O=C(NO)c1ccc2c(=O)[nH]cnc2c1 [Compound I-284, N-hydroxy-4-oxo-3,4-dihydroquinazoline-7-carboxamide] | 76.8
O=C(NO)c1ccc2ncn(Cc3ccccn3)c(=O)c2c1 [Compound I-193, N-hydroxy-4-oxo-3-(pyridin-2-ylmethyl)-3,4-dihydroquinazoline-6-carboxamide] | 79.1
O=C(NO)c1ccc2ccn(CCOc3ccccc3C(F)(F)F)c(=O)c2c1 [Compound I-175, N-hydroxy-1-oxo-2-{2-[2-(trifluoromethyl)phenoxy]ethyl}-1,2-dihydroisoquinoline-7-carboxamide] | 95.9
O=C(NO)c1ccc2ccn(CCOc3cc(C(F)(F)F)cc(C(F)(F)F)c3)c(=O)c2c1 [Compound I-91, 2-{2-[3,5-bis(trifluoromethyl)phenoxy]ethyl}-N-hydroxy-1-oxo-1,2-dihydroisoquinoline-7-carboxamide] | 86.9
O=C(NO)c1ccc2ccn(Cc3cccc(OCc4ccccc4)c3)c(=O)c2c1 [Compound I-31, 2-[3-(benzyloxy)benzyl]-N-hydroxy-1-oxo-1,2-dihydroisoquinoline-7-carboxamide] | 89.5
O=C(NO)c1ccc2ccn(CCCc3c[nH]c4ccccc34)c(=O)c2c1 [Compound I-95, N-hydroxy-2-[3-(1H-indol-3-yl)propyl]-1-oxo-1,2-dihydroisoquinoline-7-carboxamide] | 98.1
O=C(NO)c1ccc2ccn(Cc3cc(C(F)(F)F)ccc3C(F)(F)F)c(=O)c2c1 [Compound I-217, 2-[2,5-bis(trifluoromethyl)benzyl]-N-hydroxy-1-oxo-1,2-dihydroisoquinoline-7-carboxamide] | 99.4
NC(=O)CCn1ccc2ccc(C(=O)NO)cc2c1=O [Compound I-250, 2-(3-amino-3-oxopropyl)-N-hydroxy-1-oxo-1,2-dihydroisoquinoline-7-carboxamide] | 77
O=C(NO)c1ccc2c(=O)n(Cc3ccc(F)cc3)cnc2c1 [Compound I-209, 3-(4-fluorobenzyl)-N-hydroxy-4-oxo-3,4-dihydroquinazoline-7-carboxamide] | 95.9
CCOCCn1ccc2ccc(C(=O)NO)cc2c1=O [Compound I-218, 2-(2-ethoxyethyl)-N-hydroxy-1-oxo-1,2-dihydroisoquinoline-7-carboxamide] | 90.4
O=C(NO)c1ccc2ccn(C3c4ccccc4-c4ccccc43)c(=O)c2c1 [Compound I-201, 2-(9H-fluoren-9-yl)-N-hydroxy-1-oxo-1,2-dihydroisoquinoline-7-carboxamide] | 88.8
COc1ccc(NCCn2ccc3ccc(C(=O)NO)cc3c2=O)cc1 [Compound I-97, N-hydroxy-2-{2-[(4-methoxyphenyl)amino]ethyl}-1-oxo-1,2-dihydroisoquinoline-7-carboxamide] | 79.1
O=C(NO)c1ccc2ncn(CCCc3ccccc3)c(=O)c2c1 [Compound I-239, N-hydroxy-4-oxo-3-(3-phenylpropyl)-3,4-dihydroquinazoline-6-carboxamide] | 93.8
O=C(NO)c1ccc2ccn(CCOc3ccc(-c4csnn4)cc3)c(=O)c2c1 [Compound I-189, N-hydroxy-1-oxo-2-{2-[4-(1,2,3-thiadiazol-4-yl)phenoxy]ethyl}-1,2-dihydroisoquinoline-7-carboxamide] | 97.2
CC(C)Nc1nc2cc(C(=O)NO)ccc2c(=O)n1C [Compound I-15, N-hydroxy-2-(isopropylamino)-3-methyl-4-oxo-3,4-dihydroquinazoline-7-carboxamide] | 32.7
